Data taken from patent US11083726B2, “Methods and compositions for treating vasomotor symptoms” (UNIVERSITY OF WASHINGTON THROUGH ITS CENTER FOR …, priority 2012, dated 2021).

System: LH secretion
Assay: LH secretion in ovariectomized mice after i.p. injection of a PRKA (serum LH by radioimmunoassay)
Assay type: in vivo
Procedure: Female mice (000664 C57BL/6J) were obtained from The Jackson Laboratory (Sacramento, Calif., USA) at 8 weeks of age. All animals were housed on a 12:12-h light-dark cycle (lights off at 1800) with food and water available ad libitum. All experiments were conducted in accordance with the National Institutes of Health (NIH) Animal Care and Use Guidelines and with approval of the Animal Care and Use Committee of the University of Washington.
Mice were ovariectomized 13 days prior to the experiment, which occurred at approximately 11 weeks of age. Mice were anesthetized with isoflurane and bilaterally ovariectomized (OVX). Briefly, the animal's ventral skin was shaved and cleaned, and small incisions were made in the skin and abdominal musculature. The gonads were identified and excised, the abdominal muscle was sutured, and the skin incision was closed with surgical clips.
Mice were injected i.p. (<500 μl) with vehicle [0.9% sterile saline (Hospira, Lake Forest, Ill., USA) with 3.6% sterile DMSO (Sigma Aldrich, Inc., St. Louis, Mo., USA), n=7] or the following doses of the PRKA, ICI204,448 hydrochloride (Tocris Bioscience, Bristol, UK), diluted in sterile saline/DMSO: 0.1 mg/kg (0.018% DMSO, n=6), 1 mg/kg (0.18% DMSO, n=4), 10 mg/kg (1.8% DMSO, n=5), or 20 mg/kg (3.6% DMSO, n=7). N.B. 1 mg/kg and 10 mg/kg groups run in different experiment/assay. […]

For `CN(C(=O)Cc1ccc(Cl)c(Cl)c1)C(CN1CCCC1)c1cccc(OCC(=O)O)c1.Cl` (racemic) [ICI 204,448 hydrochloride, (RS)-[3-[1-[[(3,4-Dichlorophenyl)acetyl]methylamino]-2-(1-pyrrolidinyl)ethyl]phenoxy]acetic acid hydrochloride], the “LH secretion (FIG. 2)” value (mice, 0.1, 1, 10, 20 mg/kg i.p., 1 mg/kg and 10 mg/kg in different experiment/assay) was “dose-dependent decrease” and the LH post injection (ovariectomized mice, High Dose 20 mg/kg i.p., 20 minutes after injection, vs. Low Dose 0.1 mg/kg (P<0.01) and Vehicle (P<0.001)) was “significantly decreased”.
